Data: patent publication US11225462B2, “Crystal forms of oxypyridine amide derivative and preparation method therefor” (JIANGSU HENGRUI MEDICINE CO., LTD., priority 2018, dated 2022)

Assays:
human blood = details: reported in WO 2018041122; cited from earlier work
FXIa = FXIa (Homo sapiens, UniProt P03951); details: reported in WO 2018041122; cited from earlier work
[1] = reported in WO 2018041122; cited from earlier work
[2] = DVS (dynamic vapor sorption) hygroscopicity characterization; type: physicochemical
Description: DVS refers to dynamic vapor sorption and is determined using SMS DVS Advantage at 25° C., with the humidity change of 50%-95%-0%-95%-50% and the stepping of 10% (5% for the last step) (the specific humidity range is determined in accordance with the corresponding plot, and the methods listed herein are those most commonly used), and the standard for determination is as follow: dm/dt is not more than 0.02%, and Tmax is not more than 360 min.

[3] = Long-term and accelerated stability experiments (3 months); type: physicochemical
Description: The long-term (25° C., 60% RH) and accelerated (40° C., 75% RH) stability of crystal form A and crystal form F of the compound of formula (I) were investigated for 3 months.

[4] = Influencing factor experiments (light, high temperature, high humidity, 30 days); type: physicochemical
Description: Crystal forms A, B, D and F of the compound of formula (I) were spread and left open to the air, and under conditions of high temperature (40° C. and 60° C.), light (4500 Lux), high humidity (RH 75% and RH 90%), the stability thereof were investigated for a period of 30 days.

Chain of FXIa (P03951 388-625 limits assumed): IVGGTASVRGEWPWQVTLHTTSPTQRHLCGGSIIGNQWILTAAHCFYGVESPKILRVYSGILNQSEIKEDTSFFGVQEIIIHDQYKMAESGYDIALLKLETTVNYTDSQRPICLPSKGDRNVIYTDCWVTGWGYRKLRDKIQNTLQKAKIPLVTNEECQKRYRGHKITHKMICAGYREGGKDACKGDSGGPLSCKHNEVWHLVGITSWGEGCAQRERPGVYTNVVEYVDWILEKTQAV
Chain of FXIa (P03951 19-387 partner limits assumed): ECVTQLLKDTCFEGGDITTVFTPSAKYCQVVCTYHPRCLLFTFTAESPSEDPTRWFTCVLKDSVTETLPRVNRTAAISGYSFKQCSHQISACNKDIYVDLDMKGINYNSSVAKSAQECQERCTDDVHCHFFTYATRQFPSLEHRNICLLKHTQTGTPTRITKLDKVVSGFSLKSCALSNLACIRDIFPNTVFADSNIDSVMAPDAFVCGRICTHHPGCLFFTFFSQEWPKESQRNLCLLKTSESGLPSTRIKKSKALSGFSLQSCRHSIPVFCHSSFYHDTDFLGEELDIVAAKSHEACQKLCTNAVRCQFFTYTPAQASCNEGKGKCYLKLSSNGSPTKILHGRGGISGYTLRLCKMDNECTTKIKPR

## CCC(=O)c1ccc(Cl)cc1-c1cc(=O)n([C@@H](CCOC(C)(C)C)C(=O)Nc2ccc(C(=O)O)cc2)cc1OC [compound of formula (I), (S)-4-(4-(tert-butoxy)-2-(4-(5-chloro-2-propionylphenyl)-5-methoxy-2-oxopyridin-1(2H)-yl)butanamido)benzoic acid]
Human blood
  anticoagulant effect on human blood: significant anticoagulant effect
FXIa
  inhibitory effect on FXIa: significant inhibitory effect
[1]
  pharmacokinetic absorption: good pharmacokinetic absorption

## CCC(=O)c1ccc(Cl)cc1-c1cc(=O)n([C@@H](CCOC(C)(C)C)C(=O)Nc2ccc(C(=O)O)cc2)cc1OC [Crystal form A, (S)-4-(4-(tert-butoxy)-2-(4-(5-chloro-2-propionylphenyl)-5-methoxy-2-oxopyridin-1(2H)-yl)butanamido)benzoic acid]
[2]; 25° C. and 60% RH
  mass increase under normal conditions: about 1.156%
[2]; 25° C., 10% RH to 80% RH
  hygroscopicity according to guidelines for drug hygroscopicity test in China Pharmacopoeia (2015 edition): slightly hygroscopic (less than 2% but not less than 0.2%)
  mass increase as the humidity increases: about 1.781%
[2]; 70% RH
  mass increase under accelerated test conditions: about 1.479%
[2]; 90% RH
  mass increase under extreme conditions: about 2.199%
[2]; after DVS detection
  crystal form before and after DVS detection (XRPD comparison): unchanged
[2]; humidity change from 0% to 95%
  desorption process and adsorption process of the sample: basically coincide
[3]; 25° C., 60% RH
  % Purity 1 month: 98.80%
  % Purity 2 months: 98.77%
  % Purity 3 months: 98.76%
  % Purity Initial condition: 98.79%
[3]; 40° C., 75% RH
  % Purity 1 month: 98.79%
  % Purity 2 months: 98.75%
  % Purity 3 months: 98.74%
  % Purity Initial condition: 98.79%
[3]; long-term (25° C., 60% RH) and accelerated (40° C., 75% RH) conditions for 3 months
  physical and chemical stability (conclusion): good physical and chemical stability
[4]; 40° C., 5 days
  % Purity: 98.74%
  Color and trait: Yellow solid
[4]; 40° C., 10 days
  % Purity: 98.70%
  Color and trait: Yellow solid
[4]; 40° C., 30 days
  % Purity: 98.48%
  Color and trait: Yellow solid
[4]; 60° C., 5 days
  % Purity: 98.73%
  Color and trait: Yellow solid
[4]; 60° C., 10 days
  % Purity: 98.68%
  Color and trait: Yellow solid
[4]; 60° C., 30 days
  % Purity: 98.50%
  Color and trait: Yellow solid
[4]; 4500 Lux, 5 days
  % Purity: 98.74%
  Color and trait: Yellow solid
[4]; 4500 Lux, 10 days
  % Purity: 98.74%
  Color and trait: Yellow solid
[4]; 4500 Lux, 30 days
  % Purity: 98.75%
  Color and trait: Yellow solid
[4]; Initial condition, day 0
  % Purity: 98.76%
  Color and trait: Yellow solid
[4]; RH 75%, 5 days
  % Purity: 98.76%
  % Weight gain: 1.15%
  Color and trait: Yellow solid
[4]; RH 75%, 10 days
  % Purity: 98.76%
  % Weight gain: 3.30%
  Color and trait: Yellow solid
[4]; RH 75%, 30 days
  % Purity: 98.76%
  % Weight gain: 5.85%
  Color and trait: Yellow solid
[4]; RH 90%, 5 days
  % Purity: 98.75%
  % Weight gain: 3.18%
  Color and trait: Yellow solid
[4]; RH 90%, 10 days
  % Purity: 98.75%
  % Weight gain: 8.14%
  Color and trait: Yellow solid
[4]; RH 90%, 30 days
  % Purity: 98.76%
  % Weight gain: 11.37%
  Color and trait: Yellow solid
[4]; light, 40° C., 60° C., 75% RH or 90% RH for 30 days
  physical and chemical stability (conclusion): good physical and chemical stability
